# Assay results taken from patent US6197811A, “Cytokine production inhibitors” (Terragen Discovery Inc., priority 1998, dated 2001).
# Test system: IL-1β production in human peripheral blood mononuclear cells (PBMC)
# Assay: LPS-induced IL-1β release from human peripheral blood mononuclear cells (PBMC), ELISA
# Format: cell-based
# Settings: 1 ng/ml LPS, 18 hours at 37° C., IL-1β by ELISA
# Experimental: IL-1 Release from Human Peripheral Blood Mononuclear Cells (PBMC)
# Human peripheral blood mononuclear cells (PBMC) were separated from Buffy coats obtained from normal healthy donors on Lymphoprep. […] Cells were incubated for 18 hours at 37° C. with 5% CO2 and the cell culture supernatants harvested and stored at -70° C. Effects on the production of IL-1β were determined by using an ELISA.
row,SMILES,IC50
1,"C/C=C/[C@@H]1OC(=O)C=C[C@H]1OC(=O)c1ccccc1 [Example 1, ((2S,3R)-3,6-Dihydro-6-oxo-(2E-prop-1-enyl-2H-pyran-3-yl)) benzoate]",2.4 µM
2,"C/C=C/[C@@H]1OC(=O)C=C[C@H]1OC(=O)c1ccc(-c2ccccc2)cc1 [Example 1a, ((2S,3R)-3,6-Dihydro-6-oxo-(2E-prop-1-enyl-2H-pyran-3-yl))-4-biphenyl carboxylate]",> 7.5 µM
3,"C/C=C/[C@@H]1OC(=O)C=C[C@H]1OC(=O)c1ccc2c(c1)C(=O)c1ccccc1-2 [Example 1b, ((2S,3R)-3,6-Dihydro-6-oxo-(2E-prop-1-enyl-2H-pyran-3-yl))-9-oxo-9H-fluorene carboxylate]",4.5 µM
4,C/C=C/[C@@H]1OC(=O)C=C[C@H]1OC(=O)c1cccc2c1C(=O)c1ccccc1-2 [Example 1c],4 µM
5,"C/C=C/[C@H]1OC(=O)C=C[C@@H]1NCc1ccccc1 [Example 2a, (5S,6R)-5-benzylamino-6E-prop-1-ene-5,6-dihydro-2H-pyran-2-one]",12 µM
6,"C/C=C/[C@H]1OC(=O)C=C[C@@H]1NCc1ccc(-c2ccccc2)cc1 [Example 2b, (5S,6R)-5-(4-biphenylmethylamino)-6E-prop-1-ene-5,6-dihydro-2H-pyran-2-one]",6.9 µM
7,"C/C=C/[C@H]1OC(=O)C=C[C@@H]1NCC1c2ccccc2-c2ccccc21 [Example 2c, (5S,6R)-5-(2-9H-fluorenemethylamino)-6E-prop-1-ene-5,6-dihydro-2H-pyran-2-one]",3.6 µM
8,"C/C=C/[C@@H]1OC(=O)C=C[C@H]1NC(=O)c1ccccc1 [Example 3, ((2S,3R)-3,6-Dihydro-6-oxo-(2E-prop-1-enyl-2H-pyran-3-yl)) phenylamide]",9.7 µM
9,"C/C=C/[C@@H]1OC(=O)C=C[C@H]1NC(=O)c1ccc(-c2ccccc2)cc1 [Example 3a, ((2S,3R) -3,6-Dihydro-6-oxo-(2E-prop-1-enyl-2H-pyran-3-yl) )4-biphenylamide]",1 µM
10,"C/C=C/[C@@H]1OC(=O)C=C[C@H]1NC(=O)c1cccc2c1-c1ccccc1C2=O [Example 3b, ((2S,3R)-3,6-Dihydro-6-oxo-(2E-prop-1-enyl-2H-pyran-3-yl))-9-oxo-9H-fluorene-4-amide]",10 µM
11,"C/C=C/[C@@H]1OC(=O)C=C[C@H]1NC(=O)c1ccc(-c2ccccc2)cc1 [Example 3c, ((2S,3R)-3,6-Dihydro-6-oxo-(2E-prop-1-enyl-2H-pyran-3-yl))-4-biphenylamide]",1.3 µM
12,"C/C=C/[C@@H]1OC(=O)C=C[C@H]1NC(=O)c1cccc2c1-c1ccccc1C2=O [Example 3d, ((2S,3R)-3,6-Dihydro-6-oxo-(2E-prop-1-enyl-2H-pyran-3-yl))-9-oxo-9H-fluorene-4-amide]",11.3 µM
13,"C/C=C/[C@@H]1OC(=O)C=C[C@H]1OC(=O)/C=C/C(C)=C/[C@@H](C)CCCCCC [Example 4, ((2S,3R)-3,6-Dihydro-6-oxo-(2E-prop-1-enyl-2H-pyran-3-yl))-(2E,4E)-4,6-dimethyldodecanoate]",4 µM
14,"C/C=C/[C@@H]1OC(=O)C=C[C@@H]1OCOCCOC [Example 4a, (2S,3S)-5-(2-Methoxy-ethoxymethoxy)-6-(2E-prop-1-enyl)-5,6-dihydro-2H-pyran-2-one]",8.5 µM
15,"C/C=C/[C@@H]1OC(=O)C=C[C@@H]1OCc1ccc(-c2ccccc2)cc1 [Example 4b, (2S,3S)-5-(4-Biphenylmethoxy)-6-(2E-prop-1-enyl)-5,6-dihydro-2H-pyran-2-one]",0.4 µM
16,"C/C=C/[C@@H]1OC(=O)C=C[C@@H]1OCc1ccccc1 [Example 4c, (2S,3S)-5-Benzyloxy-6-(2E-prop-1-enyl)-5,6-dihydro-2H-pyran-2-one]",1.2 µM
17,"C/C=C/[C@@H]1OC(=O)C=C[C@@H]1OC(=O)/C=C/CCCCCCCCC [Example 5, ((2S,3S)-3,6-Dihydro-6-oxo-(2E-prop-1-enyl-2H-pyran-3-yl))dodeca-2E-enoate]",2.8 µM

row,SMILES,IC50
1,"C/C=C/[C@@H]1OC(=O)C=C[C@@H]1OC(=O)/C=C/c1ccco1 [Example 5a, ((2S,3S)-3,6-dihydro-6-oxo-(2E-prop-1-enyl-2H-yran-3-yl))-3-(2-furfuryl)acrylate]",1.2 µM
2,"C/C=C/[C@@H]1OC(=O)C=C[C@@H]1OC(=O)c1ccc(-c2ccccc2)cc1 [Example 5b, ((2S,3S)-3,6-Dihydro-6-oxo-(2E-prop-1-enyl-2H-pyran-3-yl))-4-biphenylcarboxylate]",0.3 µM
3,"C/C=C/[C@@H]1OC(=O)C=C[C@@H]1OC(=O)c1ccc(-c2ccc(CC)cc2)cc1 [Example 5c, ((2S,3S)-3,6-Dihydro-6-oxo-(2E-prop-1-enyl-2H-pyran-3-yl))-4'-ethyl-4-biphenylcarboxylate]",0.1 µM
4,"C/C=C/[C@@H]1OC(=O)C=C[C@@H]1OC(=O)c1cccc2c1Cc1ccccc1-2 [Example 5d, ((2S,3S)-3,6-Dihydro-6-oxo-(2E-prop-1-enyl-2H-pyran-3-yl))-9H-fluorenecarboxylate]",0.3 µM
5,"C/C=C/[C@@H]1OC(=O)C=C[C@@H]1OC(=O)c1cccc2c1C(=O)c1ccccc1-2 [Example 5e, ((2S,3S)-3,6-Dihydro-6-oxo-(2E-prop-1-enyl-2H-pyran-3-yl))-9-oxo-9H-fluorene carboxylate]",0.13 µM
6,"C/C=C/[C@@H]1OC(=O)C=C[C@@H]1OC(=O)c1ccc2c(c1)C(=O)c1ccccc1-2 [Example 5f, ((2S,3S)-3,6-Dihydro-6-oxo-(2E-prop-1-enyl-2H-pyran-3-yl))-9-oxo-9H-fluorene-2-carboxylate]",1.2 µM
7,"C/C=C/[C@@H]1OC(=O)C=C[C@@H]1OC(=O)Cc1ccc(-c2ccccc2)cc1 [Example 5g, ((2S,3S)-3,6-Dihydro-6-oxo-(2E-prop-1-enyl-2H-pyran-3-yl))-4-biphenylacetate]",13.4 µM
8,"C/C=C/[C@@H]1OC(=O)C=C[C@@H]1OC(=O)Cc1ccccc1 [Example 5h, ((2S,3S)-3,6-Dihydro-6-oxo-(2E-prop-1-enyl-2H-pyran-3-yl))phenylacetate]",1.4 µM
9,"C/C=C/[C@@H]1OC(=O)C=C[C@@H]1OC(=O)/C=C/c1cccc(C)c1 [Example 5i, ((2S,3S)-3,6-Dihydro-6-oxo-(2E-prop-1-enyl-2H-pyran-3-yl))-3m-tolylacrylate]",1 µM
10,"C/C=C/[C@@H]1OC(=O)C=C[C@@H]1OC(=O)/C=C/c1ccc2ccccc2c1 [Example 5j, ((2S,3S)-3,6-Dihydro-6-oxo-(2E-prop-1-enyl-2H-pyran-3-yl))-3-(2-naphthyl)acrylate]",0.7 µM
11,"C/C=C/[C@@H]1OC(=O)C=C[C@@H]1OC(=O)c1ccc(CCCCC)cc1 [Example 5k, ((2S,3S)-3,6-Dihydro-6-oxo-(2E-prop-1-enyl-2H-pyran-3-yl))-4-pentylbenzoate]",0.4 µM
12,"C/C=C/[C@@H]1OC(=O)C=C[C@@H]1OC(=O)CCCCCCCCCCC [Example 5l, ((2S,3S)-3,6-Dihydro-6-oxo-(2E-prop-1-enyl-2H-pyran-3-yl))dodecanoate]",8.4 µM
13,"C/C=C/[C@@H]1OC(=O)C=C[C@@H]1OC(=O)CCCCCCCCCCCCC [Example 5m, ((2S,3S)-3,6-Dihydro-6-oxo-(2E-prop-1-enyl-2H-20 pyran-3-yl))tetradodecanoate]",5.4 µM
14,"CCCCCC[C@H](C)/C=C(C)/C=C/C(=O)O[C@H]1C=CC(=O)O[C@H]1/C=C/C(=O)OCC [Example 6, ((2S,3S)-3,6-Dihydro-6-oxo-(2E-3-oxo-3-ethoxyprop-1-enyl-2H-pyran-3-yl))-(2E,4E)-4,6-dimethyldodecadienoate]",6 µM
15,"CCCCCC[C@H](C)/C=C(C)/C=C/C(=O)O[C@H]1C=CC(=O)O[C@H]1/C=C/C(=O)OCCC [Example 6a, ((2S,3S)-3,6-Dihydro-6-oxo-(2E-3-oxo-3-propoxyprop-1-enyl)-2H-pyran-3-yl)-(2E,4E)-4,6-dimethyldodecadienoate]",1.4 µM
16,"CCCCCC[C@H](C)/C=C(C)/C=C/C(=O)O[C@H]1C=CC(=O)O[C@H]1/C=C/C(=O)OCCCC [Example 6b, ((2S,3S)-3,6-Dihydro-6-oxo-(2E-3-oxo-3-butoxyprop-1-enyl)-2H-pyran-3-yl)-(2E,4E)-4,6-dimethyldodecadienoate]",1.4 µM
17,"CCCCCC[C@H](C)/C=C(C)/C=C/C(=O)O[C@H]1C=CC(=O)O[C@H]1/C=C/C(=O)NCc1ccccc1 [Example 6c, ((2S,3S)-3,6-Dihydro-6-oxo-(2E-3-oxo-3-benzylaminoprop-1-enyl)-2H-pyran-3-yl)-(2E,4E)-4,6-dimethyldodecadienoate]",> 9 µM
